Paper PMC2799658, “A Multidimensional Strategy to Detect Polypharmacological Targets in the Absence of Structural and Sequence Homology” (PLoS Computational Biology, 2010)

Experiments:
[1] = target: T1, T. brucei UDP-galactose 4′ epimerase (TbGalE) (Trypanosoma brucei, UniProt Q8T8E9); assay: enzyme inhibition assay (details in Text S1); format: biochemical
T1 construct: gene galE; isolated protein; construct and host not described in main text (assay details in Text S1); 1GY8 is the docked crystal structure
T1 sequence (Q8T8E9 1-395): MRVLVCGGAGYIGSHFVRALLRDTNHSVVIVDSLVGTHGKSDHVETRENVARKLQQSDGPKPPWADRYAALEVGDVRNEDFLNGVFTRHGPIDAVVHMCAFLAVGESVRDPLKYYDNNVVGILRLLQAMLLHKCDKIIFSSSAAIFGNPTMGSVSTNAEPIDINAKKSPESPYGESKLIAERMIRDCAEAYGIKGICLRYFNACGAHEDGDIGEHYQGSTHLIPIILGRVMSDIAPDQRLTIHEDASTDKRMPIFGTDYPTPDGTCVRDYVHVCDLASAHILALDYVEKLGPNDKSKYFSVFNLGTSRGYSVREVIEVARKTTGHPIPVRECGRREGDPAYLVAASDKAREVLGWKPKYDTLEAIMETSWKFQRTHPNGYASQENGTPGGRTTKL

[2] = target: T2, H. sapiens mitochondrial 2-enoyl thioester reductase (HsETR1) (Homo sapiens, UniProt Q9BV79); assay: enzyme inhibition assay (details in Text S1); format: biochemical
T2 construct: gene MECR; isolated protein; construct and host not described in main text (assay details in Text S1); 1ZSY is the docked crystal structure
T2 sequence (Q9BV79 54-373): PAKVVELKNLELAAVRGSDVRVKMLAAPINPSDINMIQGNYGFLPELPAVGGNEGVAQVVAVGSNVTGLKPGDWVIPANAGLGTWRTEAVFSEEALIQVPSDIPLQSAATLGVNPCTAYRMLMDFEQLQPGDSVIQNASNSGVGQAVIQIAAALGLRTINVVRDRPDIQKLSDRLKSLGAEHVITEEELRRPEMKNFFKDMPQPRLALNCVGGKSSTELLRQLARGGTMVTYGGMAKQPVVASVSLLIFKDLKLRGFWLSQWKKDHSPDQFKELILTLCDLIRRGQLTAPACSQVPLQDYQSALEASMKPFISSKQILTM

O=S(=O)(O)c1cc(O)c2c(O)c(N=Nc3cccc4ccccc34)c(S(=O)(=O)O)cc2c1 [compound 1, 4,5-dihydroxy-3-(1-naphthyldiazenyl)-2,7-naphthalenedisulfonic acid]
IC50 [1]: 0.7 ± 0.2 µM | IC50 [2]: ~33.5 µM
